Reference: US20230017045A1, “PYRIDINE AND PYRIMIDINE CARBOXYLATE HERBICIDES AND METHODS OF USE THEREOF” (Dow AgroSciences LLC, priority 2017, published 2023)

Test system: test plant species
Assay: Post-emergent herbicidal activity test (greenhouse, foliar spray, visual growth reduction)
Type: in vivo
Settings: post-emergence, 336 h, ALOMY: blackgrass (Alopecurus myosuroides), 140 g ai/ha, 14 days after application, read-out: Visual Growth Reduction (%) 14 Days After Application, ALOMY
Summary of the method: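 Scoring used a 0 to 100 percent visual scale of growth reduction against solvent-treated controls, read 14 d after spraying. Applications went onto plants at first or second true leaf stage, 187 L/ha, with crop oil concentrate and X-77 surfactant in the carrier. Post-treatment watering was by subirrigation to avoid wash-off.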

Compound | pest or weed control at 140 g/ha [%]
O=C(O)c1nc(-c2cc3c(cc2Cl)OCO3)c(Cl)cc1Cl [F183, 3,5-Dichloro-6-(6-chlorobenzo[d][1,3]dioxol-5-yl)picolinic acid] | 0 to 29
COC(=O)c1nc(-c2ccc(C(C)F)cc2Cl)ccc1Cl (stereo not drawn) [F14, methyl 3-chloro-6-(2-chloro-4-(1-fluoroethyl)phenyl)-picolinate] | 0 to 29

Same assay, conditions: post-emergence, 336 h, AMARE: redroot pigweed (Amaranthus retroflexus), 140 g ai/ha, 14 days after application, read-out: Visual Growth Reduction (%) 14 Days After Application, AMARE

Compound | pest or weed control at 140 g/ha [%]
O=C(O)c1nc(-c2cc3c(cc2Cl)OCO3)c(Cl)cc1Cl [F183, 3,5-Dichloro-6-(6-chlorobenzo[d][1,3]dioxol-5-yl)picolinic acid] | 60 to 74
COC(=O)c1nc(-c2ccc(C(C)F)cc2Cl)ccc1Cl (stereo not drawn) [F14, methyl 3-chloro-6-(2-chloro-4-(1-fluoroethyl)phenyl)-picolinate] | 0 to 29

Same assay, conditions: post-emergence, 336 h, AVEFA: wild oat (Avena fatua), 140 g ai/ha, 14 days after application, read-out: Visual Growth Reduction (%) 14 Days After Application, AVEFA

Compound | pest or weed control at 140 g/ha [%]
O=C(O)c1nc(-c2cc3c(cc2Cl)OCO3)c(Cl)cc1Cl [F183, 3,5-Dichloro-6-(6-chlorobenzo[d][1,3]dioxol-5-yl)picolinic acid] | 0 to 29
COC(=O)c1nc(-c2ccc(C(C)F)cc2Cl)ccc1Cl (stereo not drawn) [F14, methyl 3-chloro-6-(2-chloro-4-(1-fluoroethyl)phenyl)-picolinate] | 0 to 29

Same assay, conditions: post-emergence, 336 h, CHEAL: lambsquarters (Chenopodium album), 140 g ai/ha, 14 days after application, read-out: Visual Growth Reduction (%) 14 Days After Application, CHEAL

Compound | pest or weed control at 140 g/ha [%]
O=C(O)c1nc(-c2cc3c(cc2Cl)OCO3)c(Cl)cc1Cl [F183, 3,5-Dichloro-6-(6-chlorobenzo[d][1,3]dioxol-5-yl)picolinic acid] | 0 to 29
COC(=O)c1nc(-c2ccc(C(C)F)cc2Cl)ccc1Cl (stereo not drawn) [F14, methyl 3-chloro-6-(2-chloro-4-(1-fluoroethyl)phenyl)-picolinate] | 85 to 94

Same assay, conditions: post-emergence, 336 h, CIRAR: canada thistle (Cirsium arvense), 140 g ai/ha, 14 days after application, read-out: Visual Growth Reduction (%) 14 Days After Application, CIRAR

Compound | pest or weed control at 140 g/ha [%]
O=C(O)c1nc(-c2cc3c(cc2Cl)OCO3)c(Cl)cc1Cl [F183, 3,5-Dichloro-6-(6-chlorobenzo[d][1,3]dioxol-5-yl)picolinic acid] | 30 to 44
COC(=O)c1nc(-c2ccc(C(C)F)cc2Cl)ccc1Cl (stereo not drawn) [F14, methyl 3-chloro-6-(2-chloro-4-(1-fluoroethyl)phenyl)-picolinate] | 0 to 29

Same assay, conditions: post-emergence, 336 h, CYPES: yellow nutsedge (Cyperus esculentus), 140 g ai/ha, 14 days after application, read-out: Visual Growth Reduction (%) 14 Days After Application, CYPES

Compound | pest or weed control at 140 g/ha [%]
O=C(O)c1nc(-c2cc3c(cc2Cl)OCO3)c(Cl)cc1Cl [F183, 3,5-Dichloro-6-(6-chlorobenzo[d][1,3]dioxol-5-yl)picolinic acid] | 0 to 29
COC(=O)c1nc(-c2ccc(C(C)F)cc2Cl)ccc1Cl (stereo not drawn) [F14, methyl 3-chloro-6-(2-chloro-4-(1-fluoroethyl)phenyl)-picolinate] | 0 to 29

Same assay, conditions: post-emergence, 336 h, DIGSA: crabgrass (Digitaria sanguinalis), 140 g ai/ha, 14 days after application, read-out: Visual Growth Reduction (%) 14 Days After Application, DIGSA

Compound | pest or weed control at 140 g/ha [%]
O=C(O)c1nc(-c2cc3c(cc2Cl)OCO3)c(Cl)cc1Cl [F183, 3,5-Dichloro-6-(6-chlorobenzo[d][1,3]dioxol-5-yl)picolinic acid] | 0 to 29
COC(=O)c1nc(-c2ccc(C(C)F)cc2Cl)ccc1Cl (stereo not drawn) [F14, methyl 3-chloro-6-(2-chloro-4-(1-fluoroethyl)phenyl)-picolinate] | 0 to 29

Same assay, conditions: post-emergence, 336 h, ECHCG: barnyardgrass (Echinochloa crus-galli), 140 g ai/ha, 14 days after application, read-out: Visual Growth Reduction (%) 14 Days After Application, ECHCG

Compound | pest or weed control at 140 g/ha [%]
O=C(O)c1nc(-c2cc3c(cc2Cl)OCO3)c(Cl)cc1Cl [F183, 3,5-Dichloro-6-(6-chlorobenzo[d][1,3]dioxol-5-yl)picolinic acid] | 0 to 29

Same assay, conditions: post-emergence, 336 h, IPOHE: ivy-leaf morning glory (Ipomoea hederacea), 140 g ai/ha, 14 days after application, read-out: Visual Growth Reduction (%) 14 Days After Application, IPOHE

Compound | pest or weed control at 140 g/ha [%]
O=C(O)c1nc(-c2cc3c(cc2Cl)OCO3)c(Cl)cc1Cl [F183, 3,5-Dichloro-6-(6-chlorobenzo[d][1,3]dioxol-5-yl)picolinic acid] | 75 to 84

Same assay, conditions: post-emergence, 336 h, KCHSC: kochia (Bassia scoparia), 140 g ai/ha, 14 days after application, read-out: Visual Growth Reduction (%) 14 Days After Application, KCHSC

Compound | pest or weed control at 140 g/ha [%]
O=C(O)c1nc(-c2cc3c(cc2Cl)OCO3)c(Cl)cc1Cl [F183, 3,5-Dichloro-6-(6-chlorobenzo[d][1,3]dioxol-5-yl)picolinic acid] | 0 to 29

Same assay, conditions: post-emergence, 336 h, ORYSA: rice (Oryza sativa), 140 g ai/ha, 14 days after application, read-out: Visual Growth Reduction (%) 14 Days After Application, ORYSA

Compound | pest or weed control at 140 g/ha [%]
O=C(O)c1nc(-c2cc3c(cc2Cl)OCO3)c(Cl)cc1Cl [F183, 3,5-Dichloro-6-(6-chlorobenzo[d][1,3]dioxol-5-yl)picolinic acid] | 0 to 29

Same assay, conditions: post-emergence, 336 h, SETFA: giant foxtail (Setaria faberi), 140 g ai/ha, 14 days after application, read-out: Visual Growth Reduction (%) 14 Days After Application, SETFA

Compound | pest or weed control at 140 g/ha [%]
O=C(O)c1nc(-c2cc3c(cc2Cl)OCO3)c(Cl)cc1Cl [F183, 3,5-Dichloro-6-(6-chlorobenzo[d][1,3]dioxol-5-yl)picolinic acid] | 0 to 29

Same assay, conditions: post-emergence, 336 h, SORVU: grain sorghum (Sorghum vulgare), 140 g ai/ha, 14 days after application, read-out: Visual Growth Reduction (%) 14 Days After Application, SORVU

Compound | pest or weed control at 140 g/ha [%]
O=C(O)c1nc(-c2cc3c(cc2Cl)OCO3)c(Cl)cc1Cl [F183, 3,5-Dichloro-6-(6-chlorobenzo[d][1,3]dioxol-5-yl)picolinic acid] | 0 to 29

Same assay, conditions: post-emergence, 336 h, STEME: common chickweed (Stellaria media), 140 g ai/ha, 14 days after application, read-out: Visual Growth Reduction (%) 14 Days After Application, STEME

Compound | pest or weed control at 140 g/ha [%]
O=C(O)c1nc(-c2cc3c(cc2Cl)OCO3)c(Cl)cc1Cl [F183, 3,5-Dichloro-6-(6-chlorobenzo[d][1,3]dioxol-5-yl)picolinic acid] | 0 to 29

Same assay, conditions: post-emergence, 336 h, TRZAS: wheat, spring (Triticum aestivum), 140 g ai/ha, 14 days after application, read-out: Visual Growth Reduction (%) 14 Days After Application, TRZAS

Compound | pest or weed control at 140 g/ha [%]
O=C(O)c1nc(-c2cc3c(cc2Cl)OCO3)c(Cl)cc1Cl [F183, 3,5-Dichloro-6-(6-chlorobenzo[d][1,3]dioxol-5-yl)picolinic acid] | 0 to 29

Same assay, conditions: post-emergence, 336 h, barnyardgrass (Echinochloa crus-galli), 14 Days After Application, 140 g ai/ha, read-out: Visual Growth Reduction (%) ECHCG

Compound | pest or weed control at 140 g/ha [%]
COC(=O)c1nc(-c2ccc(C(C)F)cc2Cl)ccc1Cl (stereo not drawn) [F14, methyl 3-chloro-6-(2-chloro-4-(1-fluoroethyl)phenyl)-picolinate] | 0 to 29

Same assay, conditions: post-emergence, 336 h, common chickweed (Stellaria media), 14 Days After Application, 140 g ai/ha, read-out: Visual Growth Reduction (%) STEME

Compound | pest or weed control at 140 g/ha [%]
COC(=O)c1nc(-c2ccc(C(C)F)cc2Cl)ccc1Cl (stereo not drawn) [F14, methyl 3-chloro-6-(2-chloro-4-(1-fluoroethyl)phenyl)-picolinate] | 0 to 29

Same assay, conditions: post-emergence, 336 h, giant foxtail (Setaria faberi), 14 Days After Application, 140 g ai/ha, read-out: Visual Growth Reduction (%) SETFA

Compound | pest or weed control at 140 g/ha [%]
COC(=O)c1nc(-c2ccc(C(C)F)cc2Cl)ccc1Cl (stereo not drawn) [F14, methyl 3-chloro-6-(2-chloro-4-(1-fluoroethyl)phenyl)-picolinate] | 0 to 29

Same assay, conditions: post-emergence, 336 h, ivy-leaf morning glory (Ipomoea hederacea), 14 Days After Application, 140 g ai/ha, read-out: Visual Growth Reduction (%) IPOHE

Compound | pest or weed control at 140 g/ha [%]
COC(=O)c1nc(-c2ccc(C(C)F)cc2Cl)ccc1Cl (stereo not drawn) [F14, methyl 3-chloro-6-(2-chloro-4-(1-fluoroethyl)phenyl)-picolinate] | 45 to 59

Same assay, conditions: post-emergence, 336 h, johnsongrass (Sorghum vulgare), 14 Days After Application, 140 g ai/ha, read-out: Visual Growth Reduction (%) SORVU

Compound | pest or weed control at 140 g/ha [%]
COC(=O)c1nc(-c2ccc(C(C)F)cc2Cl)ccc1Cl (stereo not drawn) [F14, methyl 3-chloro-6-(2-chloro-4-(1-fluoroethyl)phenyl)-picolinate] | 0 to 29

Same assay, conditions: post-emergence, 336 h, kochia (Bassia scoparia), 14 Days After Application, 140 g ai/ha, read-out: Visual Growth Reduction (%) KCHSC

Compound | pest or weed control at 140 g/ha [%]
COC(=O)c1nc(-c2ccc(C(C)F)cc2Cl)ccc1Cl (stereo not drawn) [F14, methyl 3-chloro-6-(2-chloro-4-(1-fluoroethyl)phenyl)-picolinate] | 85 to 94

Same assay, conditions: post-emergence, 336 h, rice (Oryza sativa), 14 Days After Application, 140 g ai/ha, read-out: Visual Growth Reduction (%) ORYSA

Compound | pest or weed control at 140 g/ha [%]
COC(=O)c1nc(-c2ccc(C(C)F)cc2Cl)ccc1Cl (stereo not drawn) [F14, methyl 3-chloro-6-(2-chloro-4-(1-fluoroethyl)phenyl)-picolinate] | 0 to 29

Same assay, conditions: post-emergence, 336 h, wheat, spring (Triticum aestivum), 14 Days After Application, 140 g ai/ha, read-out: Visual Growth Reduction (%) TRZAS

Compound | pest or weed control at 140 g/ha [%]
COC(=O)c1nc(-c2ccc(C(C)F)cc2Cl)ccc1Cl (stereo not drawn) [F14, methyl 3-chloro-6-(2-chloro-4-(1-fluoroethyl)phenyl)-picolinate] | 0 to 29
